≈ marks a conversion by molar mass, not a printed value.
Tests used:
Format in all cases: physicochemical
[1] = Determination of apparent solubility (shake flask, 37 °C, 12 h, HPLC external standard); details: for Apparent solubility / solubility at 12 h: 37 °C ± 0.5 °C, 12h; for solubility at 12 h: thermodynamic from solid
Method: Example 11: Determination of Apparent solubility
The apparent solubility of the amorphous form of Apremilast in the present invention and the Apremilast crystal form is compared.
The test objects were as follows: the amorphous form of Apremilast obtained in Example 1 of the present invention; the crystal Form B of Apremilast was prepared according to the patent CN102702070 Example 12. […]
Preparation of diluents of different pH: • (1) pH=1.0 diluent: Add 9 mL of concentrated HCl to a 1000 mL of volumetric flask, diluted to the volume with water. • (2) pH=2.0 diluent: Solution A: Transfer 16.6 mL of phosphoric acid to a 100 mL volumetric flask, dilute to the volume with water, shake to mix. Solution B: Weigh and transfer 71.63g of […] phosphate to a 1000 mL of volumetric flask, dilute to the volume with water, dissolve and mix well. […]
Example 51: Determination of Apparent solubility
The test objects were as follows: the solid dispersion of amorphous Apremilast obtained in Example 23 of the present invention; the physical mixture comprising Apremilast crystalline (Apremilast crystal Form B, sorbitol and polyacrylic resin Eudragit L100 were mixed physically, and the weight ratio is 1:1:1, and the crystal Form B of Apremilast was prepared according to the patent CN102702070 Example 12.).

[2] = Accelerated stability test (related substances by HPLC, crystallinity by XRPD); details: for Related substances (Total impurities %) / crystalline (XRPD): Temperature: 40°C±2°C, Humidity: 75%±5%
Method: Example 10: Accelerated stability test of the amorphous Apremilast
Material: amorphous Apremilsat was prepared according to the method of Example 1.
(§1) Experiment conditions: temperature 40 °C ± 2 °C, humidity 75% ± 5%
The substance was detected by HPLC. […]

[3] = Impact factor test (high temperature / high humidity stress stability; related substances by HPLC, crystallinity by XRPD)
Method: Example 9: Impact factor test of the amorphous Apremilast
Material: Amorphous Apremilast was prepared according to the method of Example 1
as §1
The substance was detected by HPLC.
Example 46: Impact factor test of the solid dispersion of amorphous Apremilast and hydroxypropylcellulose SSL and povidone K30
Material: the solid dispersion of amorphous Apremilast and hydroxypropylcellulose SSL and povidone K30 was prepared according to the method of Example 12
Experiment conditions: temperature 40 °C ± 2 °C, humidity 75% ± 5% The substance was detected by HPLC.
Example 49: Impact factor test of the solid dispersion of amorphous Apremilast, sorbitol and polyacrylic resin Eudragit L100 […]

[4] = accelerated test conditions after 6 months
[5] = Temperature 40 °C ± 2 °C, 0 day
[6] = Temperature 40 °C ± 2 °C, 5 days
[7] = Temperature 40 °C ± 2 °C, 10 days
[8] = Temperature 60 °C ± 2 °C, 0 day
[9] = Temperature 60 °C ± 2 °C, 5 days
[10] = Temperature 60 °C ± 2 °C, 10 days
[11] = conditions of high temperature, high humidity after 10 days

SMILES: CCOc1cc([C@@H](CS(C)(=O)=O)N2C(=O)c3cccc(NC(C)=O)c3C2=O)ccc1OC [The crystal Form B of Apremilast, N-[2-[(1S)-1-(3-ethoxy-4-Methoxyphenyl)-2-(Methylsulfonyl)ethyl]-2,3-dihydro-1,3-dioxo-1H-isoindol-4-yl]-Acetamide, reference compound]
- Apparent solubility ([1]; pH value of Dilution 2.0): 7.86 µg/mL
- Apparent solubility ([1]; pH value of Dilution 3.0): 48.12 µg/mL
- Apparent solubility ([1]; pH value of Dilution 4.5): 24.18 µg/mL
- Apparent solubility ([1]; pH value of Dilution 5.0): 9.99 µg/mL
- Apparent solubility ([1]; pH value of Dilution 5.6): 16.71 µg/mL
- Apparent solubility ([1]; pH value of Dilution 6.8): 12.53 µg/mL
- Apparent solubility ([1]; pH value of Dilution 7.4): 10.71 µg/mL

SMILES: CCOc1cc([C@@H](CS(C)(=O)=O)N2C(=O)c3cccc(NC(C)=O)c3C2=O)ccc1OC [amorphous Apremilast, N-[2-[(1S)-1-(3-ethoxy-4-Methoxyphenyl)-2-(Methylsulfonyl)ethyl]-2,3-dihydro-1,3-dioxo-1H-isoindol-4-yl]-Acetamide]
- apparent solubility compared with the crystal form or the physical mixture comprising crystal Form B ([1]; at each pH): significantly higher
- apparent solubility increases ([1]; in most pH conditions): more than 60%
- solubility at 12 h ([1]; pH 3.0 acetate diluent, 37 °C, pH 3, aqueous buffer, pH value of Dilution 3.0): 66.8 µg/mL (≈ 145 µM)
- solubility at 12 h ([1]; pH 4.5 diluent, 37 °C, pH 4.5, aqueous buffer, pH value of Dilution 4.5): 42.2 µg/mL (≈ 91.7 µM)
- solubility at 12 h ([1]; pH 6.8 phosphate diluent, 37 °C, pH 6.8, aqueous buffer, pH value of Dilution 6.8): 23.2 µg/mL (≈ 50.4 µM)
- solubility at 12 h ([1]; pH 7.4 phosphate diluent, 37 °C, pH 7.4, aqueous buffer, pH value of Dilution 7.4): 18.7 µg/mL (≈ 40.6 µM)
- Apparent solubility ([1]; pH value of Dilution 2.0, listed as The amorphous form of Apremilast obtained in Example 1): 19.32 µg/mL
- Apparent solubility ([1]; pH value of Dilution 5.0, listed as The amorphous form of Apremilast obtained in Example 1): 22.81 µg/mL
- solubility at 12 h ([1]; phthalate buffer pH 5.6, 37 °C, pH 5.6, aqueous buffer, pH value of Dilution 5.6): 30 µg/mL (≈ 65.2 µM)
- Related substances (Total impurities %) ([2]; 0 month): 0.08%
- crystalline (XRPD) ([2]; 0 month): There is no peak of crystalline Apremilast
- Related substances (Total impurities %) ([2]; 1 month): 0.10%
- crystalline (XRPD) ([2]; 1 month): There is no peak of crystalline Apremilast
- Related substances (Total impurities %) ([2]; 2 months): 0.14%
- crystalline (XRPD) ([2]; 2 months): There is no peak of crystalline Apremilast
- Related substances (Total impurities %) ([2]; 3 months): 0.16%
- crystalline (XRPD) ([2]; 3 months): There is no peak of crystalline Apremilast
- Related substances (Total impurities %) ([2]; 6 months): 0.18%
- crystalline (XRPD) ([2]; 6 months): There is no peak of crystalline Apremilast
- changes in the related substances [2, 4]: no significant changes
- crystallization of Apremilast [2, 4]: no crystallization of Apremilast was observed
- Related substances (Total impurities %) ([3]; Humidity 75%±5%, 0 day): 0.08%
- crystalline (XRPD) ([3]; Humidity 75%±5%, 0 day): There is no peak of crystalline Apremilast
- Related substances (Total impurities %) ([3]; Humidity 75%±5%, 5 days): 0.08%
- crystalline (XRPD) ([3]; Humidity 75%±5%, 5 days): There is no peak of crystalline Apremilast
- Related substances (Total impurities %) ([3]; Humidity 75%±5%, 10 days): 0.09%
- crystalline (XRPD) ([3]; Humidity 75%±5%, 10 days): There is no peak of crystalline Apremilast
- Related substances (Total impurities %) ([3]; Humidity 90%±5%, 0 day): 0.08%
- crystalline (XRPD) ([3]; Humidity 90%±5%, 0 day): There is no peak of crystalline Apremilast
- Related substances (Total impurities %) ([3]; Humidity 90%±5%, 5 days): 0.09%
- crystalline (XRPD) ([3]; Humidity 90%±5%, 5 days): There is no peak of crystalline Apremilast
- Related substances (Total impurities %) ([3]; Humidity 90%±5%, 10 days): 0.11%
- crystalline (XRPD) ([3]; Humidity 90%±5%, 10 days): There is no peak of crystalline Apremilast
- Related substances (Total impurities %) [3, 5]: 0.08%
- crystalline (XRPD) [3, 5]: There is no peak of crystalline Apremilast
- Related substances (Total impurities %) [3, 6]: 0.10%
- crystalline (XRPD) [3, 6]: There is no peak of crystalline Apremilast
- Related substances (Total impurities %) [3, 7]: 0.12%
- crystalline (XRPD) [3, 7]: There is no peak of crystalline Apremilast
- Related substances (Total impurities %) [3, 8]: 0.08%
- crystalline (XRPD) [3, 8]: There is no peak of crystalline Apremilast
- Related substances (Total impurities %) [3, 9]: 0.12%
- crystalline (XRPD) [3, 9]: There is no peak of crystalline Apremilast
- Related substances (Total impurities %) [3, 10]: 0.14%
- crystalline (XRPD) [3, 10]: There is no peak of crystalline Apremilast
- changes in the related substances [3, 11]: no significant changes
- crystallization of Apremilast [3, 11]: no crystallization of Apremilast was observed

From patent publication EP3378852A1, “AMORPHOUS FORM OF APREMILAST, PREPARATION METHOD THEREFOR, AND APPLICATION THEREOF” (Changzhou Ainuoxinrui Pharmaceuticals, Ltd., priority 2015, dated 2017)
